# Reference: ChEMBL document CHEMBL3045730, “An efficient anticancer histone deacetylase inhibitor and its analogues for human HDAC8” (Med Chem Res, 2012)
# Target: T1, Histone deacetylase 8 (Homo sapiens, UniProt Q9BY41)
# T1 sequence (Q9BY41 whole entry): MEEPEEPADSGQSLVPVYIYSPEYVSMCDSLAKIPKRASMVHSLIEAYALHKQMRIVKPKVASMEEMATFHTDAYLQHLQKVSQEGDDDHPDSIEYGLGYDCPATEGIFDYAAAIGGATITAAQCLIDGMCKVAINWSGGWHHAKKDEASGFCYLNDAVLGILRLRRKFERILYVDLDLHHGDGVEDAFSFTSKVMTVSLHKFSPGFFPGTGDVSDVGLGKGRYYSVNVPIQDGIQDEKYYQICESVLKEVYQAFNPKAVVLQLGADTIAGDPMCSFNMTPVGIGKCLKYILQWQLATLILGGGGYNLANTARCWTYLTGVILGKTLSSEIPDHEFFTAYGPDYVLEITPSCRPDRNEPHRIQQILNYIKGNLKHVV
# Assay: Inhibition of Homo sapiens (human) HDAC8
row,Structure (SMILES),IC50
1,CC(C)c1cc(C(C)C)c(C(C)C)cc1CS(=O)(=O)Nc1ccc(/C=C\C(=O)NO)cc1,600 nM
2,COc1ccccc1C(=O)CCCCCCCC(=O)NO,95 nM
3,COc1ccc(CS(=O)(=O)Nc2ccc(/C=C\C(=O)NO)cc2)cc1OC,90 nM
4,O=C(CCCCCCC/C(=N\O)c1ccc(-c2ccccc2)cc1)NO,4 nM
5,Cn1cc(C(=O)Cl)cc1/C=C/C(=O)NO,9650 nM
6,O=C(CCCCCCCC(O)c1ccc2ccccc2c1)NO (stereo unspecified),35 nM
7,O=C(CCCCCCCC(=O)c1cccnc1)NO,153 nM
8,O=C(CCCCCCCC(=O)c1ccccc1)NO,65 nM
9,O=C(NO)c1ccc(CCCc2ccccc2)cc1,1000 nM
10,O=C(NCc1ccc(C(=O)Nc2ccccc2O)cc1)OCc1cccnc1,2200 nM
11,Cc1cccc(NC(=O)c2ccc(CNC(=O)OCc3cccnc3)cc2)c1N,> 100000 nM
12,O=C(CCCCCCCC(=O)c1ccc(Br)cc1)NO,45 nM
13,CC(C)(C)c1ccc(CS(=O)(=O)Nc2ccc(/C=C\C(=O)NO)cc2)cc1,100 nM
14,COc1ccc(C(=O)CCCCCCC(=O)NO)cc1,450 nM
15,O=C(CCCCCC(=O)c1ccccc1)NO,1500 nM
16,Cn1cc(C=O)cc1CCC(=O)NO,52600 nM
17,Cc1ccc(N)c(NC(=O)c2ccc(CNC(=O)OCc3cccnc3)cc2)c1,2800 nM
18,C/C(=C\Cc1ccc(NS(=O)(=O)c2ccccc2)cc1)CC(=O)NO,2000 nM
19,O=C(CCCCCCCN1C(=O)c2ccccc2C1=O)NO,71.4 nM
20,C=C(CCCCCCCC(=O)NO)c1ccc2ccccc2c1,8 nM
21,O=C(CCCCCCCC(=O)c1ccc(-c2ccccc2)cc1)NO,5 nM
22,O=C(CCCCCCC(=O)c1ccccc1)NO,500 nM
23,Nc1cccc(NC(=O)c2ccc(CNC(=O)OCc3cccnc3)cc2)c1,> 100000 nM
24,O=C(CCCCCCCCc1ccc2ccccc2c1)NO,25 nM
25,O=C(CCCCCC/C=C/c1ccc2ccccc2c1)NO,6 nM
26,O=C(/C=C/c1ccc(NS(=O)(=O)c2ccc(Cl)c(Cl)c2)cc1)NO,100 nM
27,O=C(Cc1ccc(NS(=O)(=O)c2ccccc2)cc1)NO,900 nM
28,O=C(CCc1ccc(NS(=O)(=O)c2ccccc2)cc1)NO,100 nM
29,Nc1ccc(NC(=O)c2ccc(CNC(=O)OCc3cccnc3)cc2)cc1,> 100000 nM

# Results, then the compound that gave them:
row,IC50,Structure (SMILES)
1,> 5000 nM,O=C(/C=C/C=C/c1ccc(-c2ccccc2)cc1)NO
2,7700 nM,Nc1ccc(Cl)cc1NC(=O)c1ccc(CNC(=O)OCc2cccnc2)cc1
3,4600 nM,COc1ccc(N)c(NC(=O)c2ccc(CNC(=O)OCc3cccnc3)cc2)c1
4,15 nM,COc1ccc(C(=O)CCCCCCCC(=O)NO)cc1
5,9.5 nM,O=C(CCCCCCCC(=O)c1ccc(N2CCCCC2)cc1)NO
6,35 nM,O=C(CCCCCCC(=O)c1ccc2ccccc2c1)NO
7,1700 nM,O=C(CCc1ccc(-c2ccc(O)cc2)cc1)NO
8,11300 nM,CC(=O)c1cc(/C=C/C(=O)NO)n(C)c1
9,44000 nM,COc1ccc(NC(=O)c2ccc(CNC(=O)OCc3cccnc3)cc2)c(N)c1
10,> 100000 nM,O=C(NCc1ccc(C(=O)Nc2ccccc2)cc1)OCc1cccnc1
11,600 nM,CC(CCCCCC(=O)c1ccc2ccccc2c1)C(=O)NOCCCCC(=O)NO (stereo unspecified)
12,320 nM,O=C(/C=C/c1cccc(-c2ccc(O)cc2)c1)NO
13,40000 nM,Nc1cc(Cl)ccc1NC(=O)c1ccc(CNC(=O)OCc2cccnc2)cc1
14,460 nM,O=C(/C=C/c1ccc(Cc2ccc(O)c(Cl)c2)cc1)NO
15,6000 nM,Nc1ccc(F)cc1NC(=O)c1ccc(CNC(=O)OCc2cccnc2)cc1
16,300 nM,Cc1ccc(S(=O)(=O)Nc2ccc(/C=C/C(=O)NO)cc2)cc1
17,8.5 nM,O=C(CCCCCCC/C(=N\O)c1ccc2ccccc2c1)NO
18,300 nM,O=C(/C=C/c1ccc(NS(=O)(=O)c2ccc(Cl)cc2Cl)cc1)NO
19,12300 nM,Cn1cc(C=O)cc1/C=C/C(=O)NO
20,20 nM,O=C(/C=C/c1ccc(Cc2ccc(CO)cc2)cc1)NO
21,4.5 nM,O=C(CCCCCCCC(=O)c1ccc(N2CCN(c3ccccc3)CC2)cc1)NO
22,45 nM,O=C(CCCCCCCC(=O)c1ccc(C(F)(F)F)cc1)NO
23,> 100000 nM,Cc1ccc(NC(=O)c2ccc(CNC(=O)OCc3cccnc3)cc2)c(N)c1
24,> 100000 nM,CC(=O)Nc1ccccc1NC(=O)c1ccc(CNC(=O)OCc2cccnc2)cc1
25,135 nM,O=C(CCCCCCCCC(=O)c1ccccc1)NO
26,60 nM,COc1ccc(CS(=O)(=O)Nc2ccc(/C=C\C(=O)NO)cc2)cc1
27,2 nM,O=C(CCCCCCCC(=O)c1ccc(-c2ccc(Br)cc2)cc1)NO
